# Results reported in patent US20060063759A1, “Tricyclic steroid hormone nuclear receptor modulators” (priority 2002, published 2006).
# pKi: −log10 of the molar value.
# Assays:
# human MR = biological target: T1, human MR (Homo sapiens, UniProt P08235); assay: Mineralocorticoid Receptor Binding Assay ([3H]-aldosterone); conditions: [3H]-aldosterone binding, human MR expressed in Sf9 cells; read-out: MR Ki
# T1 construct: The full length human MR gene is cloned from a human kidney or human brain cDNA library; His tag from the pAcHLT vector (own knowledge); made in house; host or cells: Sf9 insect cells (baculovirus, pAcHLT transfer vector)
# T1 sequence (P08235 1-984): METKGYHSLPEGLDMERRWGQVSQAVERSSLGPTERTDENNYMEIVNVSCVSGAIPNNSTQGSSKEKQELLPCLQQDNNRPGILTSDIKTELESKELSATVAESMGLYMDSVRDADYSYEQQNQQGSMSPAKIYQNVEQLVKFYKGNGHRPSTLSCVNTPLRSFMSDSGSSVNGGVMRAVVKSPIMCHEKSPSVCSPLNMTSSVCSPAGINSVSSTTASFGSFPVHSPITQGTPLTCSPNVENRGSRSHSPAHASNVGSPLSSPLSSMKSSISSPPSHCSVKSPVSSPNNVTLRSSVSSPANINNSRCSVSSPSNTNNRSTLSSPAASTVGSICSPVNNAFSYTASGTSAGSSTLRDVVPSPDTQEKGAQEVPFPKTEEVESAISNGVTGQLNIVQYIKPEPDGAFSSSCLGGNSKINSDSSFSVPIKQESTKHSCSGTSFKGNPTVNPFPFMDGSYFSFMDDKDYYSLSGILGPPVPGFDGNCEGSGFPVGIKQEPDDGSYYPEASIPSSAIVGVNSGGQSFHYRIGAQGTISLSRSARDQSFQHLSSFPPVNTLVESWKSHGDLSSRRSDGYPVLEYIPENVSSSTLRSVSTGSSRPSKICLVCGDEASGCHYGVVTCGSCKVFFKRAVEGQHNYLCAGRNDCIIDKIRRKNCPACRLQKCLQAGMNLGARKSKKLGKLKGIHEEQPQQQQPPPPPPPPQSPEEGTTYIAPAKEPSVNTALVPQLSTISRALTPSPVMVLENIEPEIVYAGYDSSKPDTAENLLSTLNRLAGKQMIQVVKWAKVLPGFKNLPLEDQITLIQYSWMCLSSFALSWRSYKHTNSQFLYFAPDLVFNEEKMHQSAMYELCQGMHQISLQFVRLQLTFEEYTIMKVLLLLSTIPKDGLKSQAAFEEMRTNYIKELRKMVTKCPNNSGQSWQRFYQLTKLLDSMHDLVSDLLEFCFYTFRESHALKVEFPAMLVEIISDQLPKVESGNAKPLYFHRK
# Method in brief: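 Receptor source: freeze-thaw lysate of baculovirus-infected Sf9 cells carrying full-length human MR, 20-25 μg protein. Incubation ~16 h at 4 °C with shaking, pH 7.5 buffer containing 30 mM sodium molybdate and 10% glycerol.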
# glucocorticoid receptor = biological target: T2, glucocorticoid receptor (Homo sapiens, UniProt P04150); assay: Glucocorticoid Receptor Binding Assay ([3H]-dexamethasone, A549 cell extract); conditions: [3H]-dexamethasone binding, read-out: GR Ki
# T2 construct: containing 50-200 ug of A549 cell extract and 1.86 nM [^3H]-dexamethasone; host or cells: A549 human lung epithelial cells (sonicated cell extract)
# T2 sequence (P04150 1-777): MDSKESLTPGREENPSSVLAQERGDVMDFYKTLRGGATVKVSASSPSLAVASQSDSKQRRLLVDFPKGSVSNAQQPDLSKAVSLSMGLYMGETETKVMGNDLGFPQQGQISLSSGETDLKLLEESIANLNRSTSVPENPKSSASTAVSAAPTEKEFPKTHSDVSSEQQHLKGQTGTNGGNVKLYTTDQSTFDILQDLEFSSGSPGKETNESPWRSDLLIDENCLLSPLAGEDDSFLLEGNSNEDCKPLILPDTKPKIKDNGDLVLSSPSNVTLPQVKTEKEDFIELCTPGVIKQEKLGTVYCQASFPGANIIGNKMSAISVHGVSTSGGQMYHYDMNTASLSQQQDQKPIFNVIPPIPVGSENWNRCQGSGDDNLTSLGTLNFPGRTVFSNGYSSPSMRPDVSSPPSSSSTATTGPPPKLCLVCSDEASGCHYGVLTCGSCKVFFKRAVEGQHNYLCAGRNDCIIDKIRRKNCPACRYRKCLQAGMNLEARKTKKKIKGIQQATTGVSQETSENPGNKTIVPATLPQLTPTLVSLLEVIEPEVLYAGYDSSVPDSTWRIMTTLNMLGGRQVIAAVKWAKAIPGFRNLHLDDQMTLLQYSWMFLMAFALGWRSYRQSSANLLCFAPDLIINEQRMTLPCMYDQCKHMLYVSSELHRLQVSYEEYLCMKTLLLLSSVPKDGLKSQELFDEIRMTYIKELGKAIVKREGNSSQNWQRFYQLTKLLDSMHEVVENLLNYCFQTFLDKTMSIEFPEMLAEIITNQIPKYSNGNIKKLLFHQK
# Method in brief: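 Displacement of [3H]-dexamethasone (1.86 nM) from glucocorticoid receptor in sonicated A549 lung epithelial cell extracts, 16 h at 4 °C, pH 7.2 molybdate-containing buffer. Bound radioactivity was scintillation-counted after charcoal/dextran stripping of free ligand.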
Structure (SMILES),pKi (human MR),pKi (glucocorticoid receptor)
"CS(=O)(=O)Nc1cccc(CC2c3ccccc3CCc3c(F)cccc32)c1 (centres unmarked) [Example 187, N-[3-(1-Fluoro-10,11-dihydro-5H-dibenzo[a,d]cyclohepten-5-ylmethyl)-phenyl]-methanesulfonamide]",> 6.30,> 6.30
"CS(=O)(=O)Nc1cccc(CC2c3ccccc3CCc3ccc(Cl)cc32)c1 (centres unmarked) [Example 189, N-[3-(3-Chloro-10,11-dihydro-5H-dibenzo[a,d]cyclohepten-5-ylmethyl)-phenyl]-methanesulfonamide]",> 6.30,> 6.30
"CS(=O)(=O)Nc1cccc(C=C2c3ccc(O)cc3CCc3cc(O)ccc32)c1 [Example 192, N-[3-(2,8-Dihydroxy-10,11-dihydro-dibenzo[a,d]cyclohepten-5-ylidenemethyl)-phenyl]-methanesulfonamide]",> 6.30,> 6.30
"COc1ccc2c(c1)CCc1cc(OC)ccc1C2=Cc1cccc(O)c1 [Example 193, 3-(2,8-Dimethoxy-10,11-dihydro-dibenzo[a,d]cyclohepten-5-ylidenemethyl)-phenol]",> 6.30,> 6.30
"Oc1cccc(C=C2c3ccc(O)cc3CCc3cc(O)ccc32)c1 [Example 194, 5-(3-Hydroxy-benzylidene)-10,11-dihydro-5H-dibenzo[a,d]cycloheptene-2,8-diol]",> 6.30,> 6.30
"CS(=O)(=O)Nc1cccc(/C=C2\c3ccccc3CCc3cc(OCCN4CCOCC4)ccc32)c1 [Example 196, N-{3-[2-(2-Morpholin-4-yl-ethoxy)-10,11-dihydro-dibenzo[a,d]cyclohepten-5-ylidenemethyl]-phenyl}-methanesulfonamide]",> 6.30,> 6.30
"CS(=O)(=O)Nc1cccc(C=C2c3cccc(F)c3CCc3c(F)cccc32)c1 [Example 201, N-[3-(1,9-Difluoro-10,11-dihydro-dibenzo[a,d]cyclohepten-5-ylidenemethyl)-phenyl]-methanesulfonamide]",> 6.30,> 6.30
"CS(=O)(=O)Nc1cccc(C=C2c3ccccc3CCc3c(Cl)cccc32)c1 [Example 205(b), N-[3-(1-Chloro-10,11-dihydro-dibenzo[a,d]cyclohepten-5-ylidenemethyl)-phenyl]-methanesulfonamide]",> 6.30,> 6.30
"CCS(=O)(=O)Nc1cccc(C=C2c3ccccc3CCc3c(Cl)cccc32)c1 [Example 208(b), Ethanesulfonic acid [3-(1-chloro-10,11-dihydro-dibenzo[a,d]cyclohepten-5-ylidenemethyl)-phenyl]-amide]",> 6.30,> 6.30
"O=c1[nH]c2cc(C=C3c4ccccc4CCc4ccccc43)ccc2o1 [Example 216, 5-(10,11-Dihydro-dibenzo[a,d]cyclohepten-5-ylidenemethyl)-3H-benzooxazol-2-one]",> 6.30,> 6.30
"C(=C1c2ccccc2CCc2ccccc21)c1ccc2ocnc2c1 [Example 217, 5-(10,11-Dihydro-dibenzo[a,d]cyclohepten-5-ylidenemethyl)-benzooxazole]",> 6.30,> 5.00
"Cc1nc2cc(C=C3c4ccccc4CCc4ccccc43)ccc2o1 [Example 218, 5-(10,11-Dihydro-dibenzo[a,d]cyclohepten-5-ylidenemethyl)-2-methyl-benzooxazole]",> 6.30,> 6.00
"C(=C1c2ccccc2CCc2ccccc21)c1ccc2cc[nH]c2c1 [Example 219, 6-(10,11-Dihydro-dibenzo[a,d]cyclohepten-5-ylidenemethyl)-1H-indole]",> 6.30,> 6.00

# Second part, the compound after the results:
pKi (human MR),pKi (glucocorticoid receptor),Structure (SMILES)
> 6.30,> 6.00,"COc1cc(F)cc(C=C2c3ccccc3CCc3ccccc32)c1 [Example 154, 5-(3-Fluoro-5-methoxy-benzylidene)-10,11-dihydro-5H-dibenzo[a,d]cycloheptene]"
> 6.30,> 6.30,"Oc1cc(F)cc(C=C2c3ccccc3CCc3ccccc32)c1 [Example 155, 3-(10,11-Dihydro-dibenzo[a,d]cyclohepten-5-ylidenemethyl)-5-fluoro-phenol]"
> 6.30,> 6.00,"Oc1cc(C=C2c3ccccc3CCc3ccccc32)ccc1Cl [Example 157, 2-Chloro-5-(10,11-dihydro-dibenzo[a,d]cyclohepten-5-ylidenemethyl)-phenol]"
> 6.30,> 6.30,"COc1ccc2c(c1)CCc1ccccc1C2=Cc1cccc(NS(C)(=O)=O)c1 [Example 161, N-[3-(2-Methoxy-10,11-dihydro-dibenzo[a,d]cyclohepten-5-ylidenemethyl)-phenyl]-methanesulfonamide]"
> 6.30,> 6.00,"COc1cc2c(cc1OC)C(=Cc1cccc(NS(C)(=O)=O)c1)c1ccccc1CC2 [Example 170(a), N-[3-(2,3-Dimethoxy-10,11-dihydro-dibenzo[a,d]cyclohepten-5-ylidenemethyl)-phenyl]-methanesulfonamide]"
> 6.30,> 6.30,"COc1cc2c(cc1OC)C(=Cc1cccc(NS(C)(=O)=O)c1)c1ccccc1CC2 [Example 170(b), N-[3-(2,3-Dimethoxy-10,11-dihydro-dibenzo[a,d]cyclohepten-5-ylidenemethyl)-phenyl]-methanesulfonamide]"
> 6.30,> 6.00,"FC(F)(F)c1ccccc1C=C1c2ccccc2CCc2cc(Cl)ccc21 [Example 174, 2-Chloro-5-(2-trifluoromethyl-benzylidene)-10,11-dihydro-5H-dibenzo[a,d]cycloheptene]"
> 6.30,> 5.00,"Cc1ccccc1C=C1c2ccccc2CCc2cc(Cl)ccc21 [Example 175, 2-Chloro-5-(2-methyl-benzylidene)-10,11-dihydro-5H-dibenzo[a,d]cycloheptene]"
> 6.30,> 6.00,"Cc1cccc(C=C2c3ccccc3CCc3cc(Cl)ccc32)c1 [Example 177, 2-Chloro-5-(3-methyl-benzylidene)-10,11-dihydro-5H-dibenzo[a,d]cycloheptene]"
> 6.30,> 6.00,"Oc1ccc(C=C2c3ccccc3CCc3cc(Cl)ccc32)cc1 [Example 180, 4-(2-Chloro-10,11-dihydro-dibenzo[a,d]cyclohepten-5-ylidenemethyl)-phenol]"
> 6.30,> 6.30,"Oc1cccc(C=C2c3ccc(Cl)cc3CCc3cc(Cl)ccc32)c1 [Example 183, 3-(2,8-Dichloro-10,11-dihydro-dibenzo[a,d]cyclohepten-5-ylidenemethyl)-phenol]"
> 6.30,> 6.30,"Oc1cccc(CC2c3ccccc3CCc3c(F)cccc32)c1 (centres unmarked) [Example 186, 3-(1-Fluoro-10,11-dihydro-5H-dibenzo[a,d]cyclohepten-5-ylmethyl)-phenol]"
